pIC50: −log10 of the molar value.
What was measured:
[1] = molecular target: T1, KRAS WT (GDP-loaded, hexahistidine tagged, truncated 1-169) (Homo sapiens, UniProt P01116); assay: SOS-mediated nucleotide exchange assay, KRAS WT; assay type: biochemical; details: SOS(cat)-mediated Bodipy-GDP exchange
T1 construct: truncated (1-169) KRAS proteins; hexahistidine
Experimental: (§1) GDP-loaded, hexahistidine tagged, truncated (1-169) KRAS proteins (WT or G12D) were used (stored in protein dilution buffer [20 mM HEPES pH=7.5, 150 NaCl, 1 mM MgCl2]). 1 μL of the respective KRAS protein (1.88 μM stock, 0.125 μM final) was mixed with 10 μL of assay buffer (30 mM TRIS pH=7.5, 1.5 mM MgCl2, 0.135 μM Bodipy-GDP [20 mM TRIS pH=7.5, 1.0 mM MgCl2, 0.09 μM final]) and 1 μL of 15× compound stock in 30% DMSO (final DMSO conc. 2%). After 30 min incubation at room temperature, the exchange reaction was initiated by addition of 3 μL SOS(cat) (catalytic domain, 2.5 μM stock in protein dilution buffer, 0.5 μM final). The assay was carried out in black low-volume plates (Corning #4514) and fluorescence was monitored (485 nm excitation and 510 nm emission) for 45 minutes after initiation at 60-s intervals.
(§2) For data analysis, relative fluorescence values for each sample after subtracting the background values (before SOS addition) were plotted in graph pad. Rates were then calculated by fitting the data by non-linear regression (one phase association curve). Typically, 6 dilutions per compound (3-fold series, starting at 60 μM final) were measured. Calculated rates vs compound concentrations were fitted by non-linear regression (log(inhibitor) vs response-Variable slope (four parameters) fit) to determine IC50 values.
(§3) Compound numbers correspond to the numbers and structures provided in Tables 1, 2 and 3 and Examples 1-4.

[2] = molecular target: T2, KRAS G12D (GDP-loaded, hexahistidine tagged, truncated 1-169) (Homo sapiens, UniProt P01116, G12D); assay: SOS-mediated nucleotide exchange assay, KRAS G12D; assay type: biochemical; details: SOS(cat)-mediated Bodipy-GDP exchange
T2 construct: truncated (1-169) KRAS proteins; hexahistidine
T2 sequence (P01116 1-169 isoform P01116-2 G12D): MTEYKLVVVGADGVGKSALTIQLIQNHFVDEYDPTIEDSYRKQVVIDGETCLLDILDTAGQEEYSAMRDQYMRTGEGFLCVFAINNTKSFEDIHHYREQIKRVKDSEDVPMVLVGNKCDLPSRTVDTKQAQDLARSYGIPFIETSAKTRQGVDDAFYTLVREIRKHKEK
Experimental: as §1, §2, §3

T1 sequence (P01116 1-169 isoform P01116-2): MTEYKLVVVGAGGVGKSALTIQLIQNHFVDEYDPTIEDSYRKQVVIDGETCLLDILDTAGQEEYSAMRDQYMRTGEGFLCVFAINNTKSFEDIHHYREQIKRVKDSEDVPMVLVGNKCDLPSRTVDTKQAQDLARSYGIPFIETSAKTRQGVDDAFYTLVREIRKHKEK

Row | SMILES | pIC50 [1] | pIC50 [2]
1 | C[C@@H]1CN(c2nc(OCCCN(C)C)nc3c(F)c(-c4cc(O)cc5ccccc45)c(Cl)cc23)[C@@H](C)CN1 (atropisomer, axis not shown) [Compound 97] | < 4.82 | < 4.82
2 | CN(C)CCCOc1nc(N2CCOCC2)c2cc(Cl)c(-c3cc(O)cc4ccccc34)c(F)c2n1 (atropisomer, axis not shown) [Compound 151] | > 4.82 | < 4.82
3 | CN(C)CCCOc1nc(N2CCNCC2)c2cc(C(F)(F)F)c(-c3cc(O)cc4ccccc34)c(F)c2n1 (atropisomer, axis not shown) [Compound 156] |  | > 4.82
4 | CC(=O)N1CCN(c2nc(OCCCN(C)C)nc3c(F)c(-c4cc(O)cc5ccccc45)c(C(F)(F)F)cc23)CC1 (atropisomer, axis not shown) [Compound 158] | > 4.82 | < 4.82
5 | CN(C)CCCOc1nc(N2CCOCC2)c2cc(C(F)(F)F)c(-c3cc(O)cc4ccccc34)c(F)c2n1 (atropisomer, axis not shown) [Compound 162] | > 4.82 | < 4.82
6 | C[C@@H]1CN(c2nc(N3CC(N(C)C)C3)nc3c(F)c(-c4cc(O)cc5ccccc45)c(Cl)cc23)[C@@H](C)CN1 (atropisomer, axis not shown) [Compound 330] | < 4.82 | < 4.82
7 | CN(C)C1CN(c2nc(N3CCNCC3)c3cc(Cl)c(-c4cc(O)cc5ccccc45)c(F)c3n2)C1 (atropisomer, axis not shown) [Compound 339] | < 4.82 | 
8 | CC(=O)N1CCN(c2nc(OCCCN(C)C)nc3c(F)c(-c4cc(O)cc5ccccc45)c(Cl)cc23)CC1 (single isomer, unassigned) [Compound 18, 1-(4-(6-chloro-2-(3-(dimethylamino)propoxy)-8-fluoro-7-(3-hydroxynaphthalen-1-yl)quinazolin-4-yl)piperazin-1-yl)ethanone] | > 4.82 | < 4.82
9 | CN(C)CCCOc1nc(N2CCNCC2)c2cc(Cl)c(-c3cc(O)cc4ccccc34)c(F)c2n1 (single isomer, unassigned) [Compound 22, 4-(6-chloro-2-(3-(dimethylamino)propoxy)-8-fluoro-4-(piperazin-1-yl)quinazolin-7-yl)naphthalen-2-ol] | < 4.82 | > 4.82
10 | Cc1ccc2[nH]ncc2c1-c1c(Cl)cc2c(N3CCNCC3)nc(OCCCN(C)C)nc2c1F [Compound 108] | < 4.82 | < 4.82
11 | CN(C)CCCOc1nc(N2CCNCC2)c2cc(Cl)c(-c3c(O)cccc3F)c(F)c2n1 [Compound 112] | < 4.82 | < 4.82
12 | CN(C)CC(O)COc1nc(N2CCNCC2)c2cc(Cl)c(-c3cc(O)cc4ccccc34)c(F)c2n1 (centres unmarked) [Compound 120] | < 4.82 | < 4.82
13 | CN(C)CCCOc1nc(N2CCNCC2)c2cc(C(F)(F)F)c(-c3cc(O)cc4ccccc34)c(F)c2n1 [Compound 147] | < 4.82 | 
14 | CN(C)CCCOc1nc(N2CCN[C@@H](CO)C2)c2cc(Cl)c(-c3cc(O)cc4ccccc34)c(F)c2n1 [Compound 155] | < 4.82 | > 4.82
15 | CN(C)CCCOc1nc(N2CCN[C@@H](C(N)=O)C2)c2cc(Cl)c(-c3cc(O)cc4ccccc34)c(F)c2n1 [Compound 164] | < 4.82 | < 4.82
16 | CN(C)CCCOc1nc(N2CCC(C#N)CC2)c2cc(Cl)c(-c3cc(O)cc4ccccc34)c(F)c2n1 [Compound 165] | < 4.82 | < 4.82

Row | SMILES | pIC50 [1] | pIC50 [2]
17 | CN(C)CCCOc1nc(N2CCN[C@@H](C#N)C2)c2cc(Cl)c(-c3cc(O)cc4ccccc34)c(F)c2n1 [Compound 166] | < 4.82 | < 4.82
18 | CN(CCCCCN=[N+]=[N-])CCCOc1nc(N2CCOCC2)c2cc(Cl)c(-c3cc(O)cc4ccccc34)c(F)c2n1 [Compound 167] |  | < 4.82
19 | CN(CCCCCN=[N+]=[N-])CCCOc1nc(N2CCNCC2)c2cc(Cl)c(-c3cc(O)cc4ccccc34)c(F)c2n1 [Compound 168] |  | < 4.82
20 | CN(C)CCCOc1nc(N2CCNC(CC(N)=O)C2)c2cc(Cl)c(-c3cc(O)cc4ccccc34)c(F)c2n1 (centres unmarked) [Compound 169] |  | > 4.82
21 | CN(C)CCCOc1nc(N2CCNC(CC#N)C2)c2cc(Cl)c(-c3cc(O)cc4ccccc34)c(F)c2n1 (centres unmarked) [Compound 170] | > 4.82 | < 4.82
22 | CC(=O)NCCCCCN(C)CCCOc1nc(N2CCOCC2)c2cc(Cl)c(-c3cc(O)cc4ccccc34)c(F)c2n1 [Compound 171] | < 4.82 | < 4.82
23 | CC(=O)NCCCCCN(C)CCCOc1nc(N2CCNCC2)c2cc(Cl)c(-c3cc(O)cc4ccccc34)c(F)c2n1 [Compound 172] | < 4.82 | > 4.82
24 | Cc1cc(N)c2[nH]ncc2c1-c1c(Cl)cc2c(N3CCNCC3)nc(OCCCN(C)C)nc2c1F [Compound 173] | < 4.82 | < 4.82
25 | Cc1cc(N)c2[nH]ncc2c1-c1c(Cl)cc2c(N3CCOCC3)nc(OCCCN(C)C)nc2c1F [Compound 174] |  | < 4.82
26 | CN(CCOc1nc(N2CCOCC2)c2cc(Cl)c(-c3cc(O)cc4ccccc34)c(F)c2n1)C(=O)CCl [Compound 175] | < 4.82 | < 4.82
27 | O=S(=O)(F)CCOc1nc(N2CCOCC2)c2cc(Cl)c(-c3cc(O)cc4ccccc34)c(F)c2n1 [Compound 176] | < 4.82 | < 4.82
28 | CN(C)C1CN(c2nc(N3CCNCC3)c3cc(Cl)c(-c4cc(O)cc5ccccc45)c(F)c3n2)C1 [Compound 334, 4-(6-Chloro-2-(3-(dimethylamino)azetidin-1-yl)-8-fluoro-4-(piperazin-1-yl)quinazolin-7-yl)naphthalen-2-ol] |  | > 4.82
29 | CN(C(=O)CN)C1CN(c2nc(N3CCNCC3)c3cc(Cl)c(-c4cc(O)cc5ccccc45)c(F)c3n2)C1 [Compound 344] | < 4.82 | > 4.82
30 | CN(C(=O)CO)C1CN(c2nc(N3CCNCC3)c3cc(Cl)c(-c4cc(O)cc5ccccc45)c(F)c3n2)C1 [Compound 346] | < 4.82 | < 4.82
31 | CN(C(=O)CCl)C1CN(c2nc(N3CCOCC3)c3cc(Cl)c(-c4cc(O)cc5ccccc45)c(F)c3n2)C1 [Compound 350] | < 4.82 | < 4.82
32 | CN(C(=O)CCl)C1CN(c2nc(N3CCNCC3)c3cc(Cl)c(-c4cc(O)cc5ccccc45)c(F)c3n2)C1 [Compound 351] | < 4.82 | < 4.82

Reference: patent US10822312B2, “Substituted quinazoline compounds and methods of use” (ARAXES PHARMA LLC, priority 2016, dated 2020)
